In patent US6762200B2, “Oxa(thia)zolidine derivative and anti-inflammatory drug” (Nippon Soda Co. Ltd., priority 2000, dated 2004):

What was measured:
IV-cPLA(2) = biological target: T1, IV-cPLA(2) (Homo sapiens, UniProt P47712); assay: PLA(2) activity, hydrolysis of bis-BODIPY FL C11-PC in activated U937 cells; format: cell-based
T1 sequence (P47712 1-749): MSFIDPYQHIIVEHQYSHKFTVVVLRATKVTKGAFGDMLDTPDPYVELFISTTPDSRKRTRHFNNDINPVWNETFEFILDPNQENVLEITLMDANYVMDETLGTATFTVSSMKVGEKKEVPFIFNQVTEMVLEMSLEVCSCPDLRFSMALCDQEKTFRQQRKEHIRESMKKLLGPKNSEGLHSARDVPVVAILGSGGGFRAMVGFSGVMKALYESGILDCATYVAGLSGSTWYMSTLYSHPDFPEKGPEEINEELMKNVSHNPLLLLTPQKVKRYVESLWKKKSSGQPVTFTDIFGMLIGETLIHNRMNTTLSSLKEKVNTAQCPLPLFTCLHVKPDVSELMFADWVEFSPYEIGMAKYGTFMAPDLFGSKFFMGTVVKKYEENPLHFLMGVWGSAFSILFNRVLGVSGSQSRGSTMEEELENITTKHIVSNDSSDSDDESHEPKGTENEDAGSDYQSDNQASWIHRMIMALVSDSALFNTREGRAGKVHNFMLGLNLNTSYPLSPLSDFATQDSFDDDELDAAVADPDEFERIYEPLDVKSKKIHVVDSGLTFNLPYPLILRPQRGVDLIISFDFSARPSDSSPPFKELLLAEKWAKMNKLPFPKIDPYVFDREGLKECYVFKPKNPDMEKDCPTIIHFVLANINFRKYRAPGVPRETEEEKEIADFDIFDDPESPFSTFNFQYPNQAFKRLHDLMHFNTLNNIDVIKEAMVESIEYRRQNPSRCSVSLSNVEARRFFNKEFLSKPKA
Procedure: The PLA(2) activity was measured by quantitatively analyzing the fluorescent product of hydrolysis from 1,2-bis-(4,4-difluoro-5,7-dimethyl-4-bora-3a,4a-diaza-s-indecene-3-undecanoyl)-sn-glycero-3-phosphocholine (hereinafter referred to bis-BODIPY®FL C11—PC, Molecular Probes, Inc., B-7701) using activated U937 cells (human monoblastic lymphoma cell line) by inflammatory stimulus (Meshulam, T. et al., The journal of Biological Chemistry 267 (30): 21465-21470 (1992); and Solito, E. et al., British Journal of Pharmacology 124: 1675-1683 (1998).). The substrate bis-BODIPY®FL C11—PC is incorporated into cellular membranes, the proximity of the BODIPY FL fluorophores on adjacent phospholipid acyl chains causes fluorescence self-quenching. Separation of the fluorophores upon hydrolytic cleavage of one of the acyl chains by PLA(1) or the PLA(2) results in increased fluorescence. In the activated U937 by inflammatory stimulus, it is shown that this substrate should be cleaved enzymatically by IV-cPLA(2) from the feature of its behaviors including sensitivity profiles against the inhibitors.
The human cell line U937 was purchased from Dai-Nippon Pharmaceuticals Co., Ltd. The cells were maintained by transferring every 3-4 days into RPMI 1640 medium (Sigma Chemical Co., R6504) supplemented with heat-inactivated 10% fetal bovine serum (Fetal Bovine Serum, Sigma Chemical Co., F 4135) in a 5% CO2 humidified atmosphere at 37° C. The cells were transferred into the culture medium described above, containing 1.2% (v/v) dimethylsulfoxide (hereinafter referred to as […], Nacalai tesque Co., Ltd., D 134-45), and pre-cultured for 96 to 120 hours so as to differentiate into the macrophage-like cells to be provided for the assay. The macrophage-like cells were collected and washed by centrifugation with the Assay medium (Dulbecco's phosphate buffered saline (hereinafter referred to as PBS)-2.2 mM glucose-2.5 μm albumin). Then, Phorbol 12-Myristate 13-Acetate (hereinafter referred to as TPA, Sigma Chemical Co., P 8139) was added to the Assay medium to be 1×10^−8M as the final concentration. Then, the macrophage-like cells were further cultured for an hour to be activated (Rzigalinski, B. A. & Rosenthal, M. D., Biochimica et Biophysica Acta 1223: 219-225 (1994); and Gonchar, M. V. et al., Biochemical and Biophysical Research Communication, 249: 829-832 (1998).).
For preparing substrate liposome suspension, bis-BODIPY®FL C11—PC was combined with phosphatidylcholine (Sigma Chemical Co., P 7769) at 1:9 molar ratio in chloroform, and dried under nitrogen flow. The dried mixture was suspended with the Assay medium at 100 μg/mL, voltexed and sonicated for an hour on ice under dark condition.
The test compound was dissolved with DMSO at 30 mM, and the solution diluted with either DMSO or the Assay medium before addition into the reaction mixture. The DMSO concentration in the reaction mixture was controlled so as to be no more than 0.1%. The 30-fold concentration of test compound solution was put into each well of MICRPTEST™ Tissue Culture Plate, 96 Well (Falcon, 3072) at a rate of 2.5 μL/well. To the respective well was added 25 μL/well of the activated U937 cell suspension ([…]), and the cells were pre-cultured for 120 min. at 37° C. in a 5% CO2 atmosphere incubator. 47.5 μL/well of the substrate liposome suspension with 1.5×10^−6M A23187 (Sigma Chemical Co., C 7522) was added into each well to prepare 75 μL/well of the total reaction mixture, followed by culture for 30 min. under the same conditions with shielding against light. 100 μL/well of 0.1% GEDTA (Dojindo Laboratories Co. Ltd., 348-01311) methanol solution was added into each well and mixed to stop the reaction. […]

[1] = tested on: acetic acid-induced writhes; assay: Acetic acid writhing; format: in vivo, ICR-strain male mouse; details: i.p., 10 to 20 min after acetic acid
Procedure: This test was carried out referring to the method of Inoue, K., Motonaga, A. & Nishimura, T (Arzneimittel Forshung/Drug Research, 41 (1): 235-239 (1991)). More specifically, 7.5 mL/kg of 0.9% acetic acid solution was injected intraperitoneally into an ICR-strain male mouse (5 to 7 weeks old), and the induced writhes (characteristic behaviors of convulsive contracting the abdomen, twisting the body and/or extending the legs) were observed. Number of writhes of each mouse was measured during 10 to 20 min. period after acetic acid administration. The compound of the present invention was homogeneously suspended in 2% Tween 80/saline for injection use, and was injected intraperitoneally 30 min. before the induction by the acetic acid injection. Alternatively, the compound of the present invention was homogeneously suspended in 2% Tween 80/distilled water, and was administrated orally two hours before the induction by the acetic acid injection. The analgesic activity of the compounds according to the present invention was evaluated on the basis of the degree of inhibiting the number writhes by the administration of the compounds. As the positive control, indomethacin or aspirin was administrated. The analgesic activity of the compounds according to the present invention measured in this test were exemplified in Table 7.

TPA-induced ear edema = format: in vivo, ICR-strain male mouse; details: topical, 0.3 mg/20 μL/ear × 2; 6 hours after TPA
Procedure: This test was carried out referring to the method of Carlson, R. P. et al. (Agents and Actions, 17(2): 197-204 (1985).) and the method of Chang, J. (European Journal of Pharmacology, 142: 197-205 (1987).). […] 6 hours later, the thickness of each ear at the particular part was respectively measured three times using a digimatic micrometer to calculate the mean value. Ear edema was determined by subtracting the mean thickness of the left ear as without treatment from that of the right ear as TPA-applied. […] As the positive control, 100 mg/kg of Hydrocortisone (Sigma Chemical Co., H 4001) suspension was applied to the mouse similarly as for the compound of the present invention.

[2] = tested on: picryl chloride-induced contact dermatitis (ear swelling); assay: Mouse delayed contact dermatitis induced by picryl chloride; details: for Ear swelling after 24 hours Left (Not applied) (Mean ± S.E., mm): topical to right ear, non-treated left ear; for Ear swelling after 24 hours Right (Applied) (Mean ± S.E., mm): topical
Procedure: This pharmacological test was carried out referring to the method of Asherson, G. L. & Ptak, W. (Immunology, 15: 405-416 (1968).) and the method of Jun Hiroi (Folia Pharmacology of Japan, 86: 233-239 (1985).). More specifically, hairs on the abdomen of an ICR-strain male mouse were removed using an electric clip and an electric shaver. Then, 0.1 mL of 7% ether solution of picryl chloride (Tokyo Kasei Kogyo Co., Ltd., C 0307) was applied onto the abdomen for sensitization. On the sixth day after the sensitization, 20 μL/ear of 1% olive oil solution of picryl chloride was topically applied to the anterior and posterior surfaces of both ears of the mouse to induce contact dermatitis (first induction). Before and 24 hours after the induction, the thicknesses of the particular parts on the both ears were measured three times, respectively, using a digimatic micrometer (Mitsutoyo Co., Ltd.) to work out the average values. Ear edema of the both ears was respectively determined by subtracting the average thickness of the each ear before the induction from that on 24 hours after the induction, so that a grouping was carried out to separate the appropriate individuals. On the fourth day after the first induction, the hairs on the abdomen were removed again, and 0.1 mL of 7% ethanol solution of picryl chloride was applied thereto for additional sensitization. The contact dermatitis for evaluating activity was induced by re-applying 20 μL/ear of 1% olive oil solution of picryl chloride to the anterior and posterior surfaces of both ears (second induction) on the seventh day after the additional sensitization (on the […] day after the first sensitization). The activity of each compound of the present invention was evaluated as the inhibition on the contact dermatitis as compared with that of the vehicle applied control. That is, the thicknesses of the particular portions of the both ears were measured respectively three times with a digimatic micrometer to work out the mean values before, 24 hours and 48 hours after the second induction. Ear swelling was determined by subtracting the ear thickness before the second induction from that on 24 hours and 48 hours after the second induction, respectively. Topical application activity was evaluated by applying 25 μL of the acetone solution of the compound of the present invention similarly to the anterior and posterior surfaces of the right ear one hour before and 16 hours after the second induction. As the positive control, 0.02 mg/20 μL of acetone solution of Dexamethasone (hereinafter referred to as DEX, Wako Pure Chemical Industries Ltd., 047-18863) was applied similarly as for the compound of the present invention. With respect to the inhibitory activity in topical application tests, the topical activity was determined by the inhibition of the applied right ear edema, and the translocation and distribution property was determined by the activity onto the swelling of non-treated left ear. Oral administration activity was evaluated by administrating 0.5% methyl cellulose suspension of the compound of the present invention forcibly and perorally to the mouse an hour before and 16 hours after the second induction. As the positive control, 20 mg/kg of Prednisolone (Sigma Chemical Co., P 6004) suspension was administrated similarly as for the compounds of the present invention.

C[C@H]1[C@H](c2ccc(Cl)cc2)OC(=N[N+](=O)[O-])N1Cc1ccc(Cl)nc1 (relative stereo) [Compound 1-12, trans-5-(4-chlorophenyl)-4-methyl-3-(2-chloro-5-pyridylmethyl)-2-nitroiminooxazolidine]
inhibition at 0.1 µM (IV-cPLA(2); U-937, 0.1 μM): 52%
Number of writhes (Mean ± S.E.) ([1]; 1 mg/kg): 10.0 ± 1.1
Ear Edema Inhibition (%) (TPA-induced ear edema): 79%

CC(=O)Oc1ccccc1C(=O)O [Aspirin, aspirin, reference compound]
Number of writhes (Mean ± S.E.) ([1]; 30 mg/kg): 9.5 ± 2.0

CN=C1OC(c2ccc(C)cc2)C(C)N1C(=O)NC1CCCCO1 (stereo not shown) [Compound 1-22]
Inhibition (%) (IV-cPLA(2); 0.1 μM): 84%
Number of writhes (Mean ± S.E.) ([1]; 1 mg/kg): 12.7 ± 4.1
Ear Edema Inhibition (%) (TPA-induced ear edema): 56%

CCOC(=O)CCC(NC(=O)N1C(=O)SC(c2ccc(Cl)cc2)C1C)C(=O)OCC (stereo not shown) [Compound 2-26]
Inhibition (%) (IV-cPLA(2); 0.1 μM): 77%
Number of writhes (Mean ± S.E.) ([1]; 0.3 mg/kg): 9.8 ± 1.9
Ear Edema Inhibition (%) (TPA-induced ear edema): 86%

COC1CCCC(NC(=O)N2C(=O)OC(c3ccc4c(c3)CCCC4)C2C)O1 (stereo not shown) [Compound 2-135]
Inhibition (%) (IV-cPLA(2); 0.01 μM): 64%
Number of writhes (Mean ± S.E.) ([1]; 1 mg/kg): 0.8 ± 0.8
Ear Edema Inhibition (%) (TPA-induced ear edema): 84%

CC1C(c2ccc(Cl)cc2)SC(=O)N1C(=S)NC1CCCCC1 (stereo not shown) [Compound 2-194]
Ear swelling after 24 hours Left (Not applied) (Mean ± S.E., mm) ([2]; 1.5 mg/25 μL/ear × 2): 0.226 ± 0.016 mm
Ear swelling after 24 hours Right (Applied) (Mean ± S.E., mm) ([2]; 1.5 mg/25 μL/ear × 2): 0.223 ± 0.010 mm
Inhibition (%) (IV-cPLA(2); 1 μM): 78%

CC1C(c2ccc(C(=O)OC(F)(F)F)cc2)SC(=O)N1C(=O)NC1CCCCO1 (stereo not shown) [Compound 2-240]
Ear swelling after 24 hours Left (Not applied) (Mean ± S.E., mm) ([2]; 1.5 mg/25 μL/ear × 2): 0.238 ± 0.024 mm
Ear swelling after 24 hours Right (Applied) (Mean ± S.E., mm) ([2]; 1.5 mg/25 μL/ear × 2): 0.246 ± 0.009 mm

C[C@@H]1C[C@H]2[C@@H]3CCC4=CC(=O)C=C[C@]4(C)[C@@]3(F)[C@@H](O)C[C@]2(C)[C@@]1(O)C(=O)CO [DEX, Dexamethasone, reference compound]
Change in body weight 48 hours after induction (Mean ± S.E.) ([2]; 0.02 mg/ear × 2): -1.42 ± 0.20 g
Change in body weight 48 hours after induction (Mean ± S.E.) (%) ([2]; 0.02 mg/ear × 2): −4.30 ± 0.59%
General condition and body weight of mice ([2]; 48 hours after the second induction): generally bad symptoms and reducing their body weight significantly
Ear swelling after 24 hours Left (Not applied) (Mean ± S.E., mm) ([2]; dose 0.02 mg/ear × 2): −0.005 ± 0.033 mm
Ear swelling after 24 hours Right (Applied) (Mean ± S.E., mm) ([2]; dose 0.02 mg/ear × 2): 0.057 ± 0.009 mm

COc1ccc2c(c1)c(CC(=O)O)c(C)n2C(=O)c1ccc(Cl)cc1 [Indomethacin, indomethacin, reference compound]
Number of writhes (Mean ± S.E.) ([1]; 3 mg/kg): 13.8 ± 3.0
Number of writhes (Mean ± S.E.) ([1]; 10 mg/kg): 4.8 ± 0.9
